Results: ChEMBL document CHEMBL1201862, “PubChem BioAssay data set” (2004)
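Grown in 96-well plates, cells were treated for 48 hours with each compound at five concentrations. Insufficient inhibition: endpoint recorded as highest concentration tested. Here, GI50 denotes the concentration required for 50% inhibition of growth.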 Activity calls are given as the source filed them. Cut-off read from the data, not from the text of the source: active = GI50 up to about 1.1 µM and inactive = higher.

Assays:
Test in all cases: NCI tumour cell line growth inhibition, 48 h
OVCAR-5 = tested on: OVCAR-5
SW-620 = tested on: SW-620
A549 = tested on: A549
K562 = tested on: K562
SR = tested on: SR
HCT-116 = tested on: HCT-116
HT-29 = tested on: HT-29
RPMI-8226 = tested on: RPMI-8226
SNB-78 = tested on: SNB-78
TK-10 = tested on: TK-10
NCI-H522 = tested on: NCI-H522
HL-60 = tested on: HL-60
HCC 2998 = tested on: HCC 2998
SF-295 = tested on: SF-295
UACC-62 = tested on: UACC-62
SK-MEL-28 = tested on: SK-MEL-28
MDA-MB-435 = tested on: MDA-MB-435
T47D = tested on: T47D
MDA-N = tested on: MDA-N
MCF7 = tested on: MCF7

Row | Compound | GI50 (OVCAR-5) | GI50 (SW-620) | GI50 (A549) | GI50 (K562) | GI50 (SR) | GI50 (HCT-116) | GI50 (HT-29) | GI50 (RPMI-8226) | GI50 (SNB-78) | GI50 (TK-10) | GI50 (NCI-H522) | GI50 (HL-60) | GI50 (HCC 2998) | GI50 (SF-295) | GI50 (UACC-62) | GI50 (SK-MEL-28) | GI50 (MDA-MB-435) | GI50 (T47D) | GI50 (MDA-N) | GI50 (MCF7)
1 | NC(=S)N/N=C(\CC1OC(=O)c2ccccc21)c1ccc(Cl)cc1 (stereo not given) | 92.9 µM (inactive) | 44.8 µM (inactive) | 48.2 µM (inactive) | 84.1 µM (inactive) | 60.7 µM (inactive) | 24.4 µM (inactive) | 27.2 µM (inactive) | 75.3 µM (inactive) | 36.9 µM (inactive) | 76.9 µM (inactive) | 20.9 µM (inactive) | 98.2 µM (inactive) | 23.9 µM (inactive) | 41.9 µM (inactive) | 19.6 µM (inactive) | 45.8 µM (inactive) |  |  |  | 
2 | COCOCC/C=C/C=O | > 100 µM (inactive) | > 100 µM (inactive) | > 100 µM (inactive) | > 100 µM (inactive) | > 100 µM (inactive) | > 100 µM (inactive) | > 100 µM (inactive) | > 100 µM (inactive) | > 100 µM (inactive) | > 100 µM (inactive) | > 100 µM (inactive) | > 100 µM (inactive) | > 100 µM (inactive) | > 100 µM (inactive) | > 100 µM (inactive) | > 100 µM (inactive) |  |  |  | 
3 | COc1ccccc1NC(=O)C(CC(C(=O)Nc1ccccc1OC)/C(C)=N/Nc1ccc([N+](=O)[O-])cc1[N+](=O)[O-])/C(C)=N/Nc1ccc([N+](=O)[O-])cc1[N+](=O)[O-] (stereo not given) | > 100 µM (inactive) | > 94.8 µM (inactive) | > 65.5 µM (inactive) | > 65.9 µM (inactive) | 0.916 µM (active) | > 59.3 µM (inactive) | > 100 µM (inactive) | 63.1 µM (inactive) | > 100 µM (inactive) | 14.6 µM (inactive) | > 73.1 µM (inactive) | 41.5 µM (inactive) | > 82 µM (inactive) | > 93.1 µM (inactive) | > 100 µM (inactive) | > 83.2 µM (inactive) |  |  |  | 
4 | NC1(C(=O)O)CCC(C(=O)O)CC1 (stereo not given) | > 100 µM (inactive) | > 100 µM (inactive) | > 100 µM (inactive) | > 100 µM (inactive) | > 100 µM (inactive) | > 100 µM (inactive) | > 100 µM (inactive) | > 100 µM (inactive) | > 100 µM (inactive) | > 100 µM (inactive) | > 100 µM (inactive) | > 100 µM (inactive) | > 100 µM (inactive) | > 100 µM (inactive) | > 100 µM (inactive) | > 100 µM (inactive) |  |  |  | 
5 | CC(=O)[C@]1(O)Cc2c(O)c3c(c(O)c2[C@@H](OC2CC(N)C(O)C(C)O2)C1)C(=O)c1c(OCc2ccccc2)cccc1C3=O (stereo not given in full) | 2.07 µM (inactive) | 0.544 µM (active) | 0.75 µM (active) | 0.738 µM (active) | 0.0933 µM (active) | 0.605 µM (active) | 1.51 µM (inactive) | 1.14 µM (inactive) | 4.38 µM (inactive) | 9.75 µM (inactive) | 1.48 µM (inactive) | 0.132 µM (active) | 1.34 µM (inactive) | 1.23 µM (inactive) | 1.73 µM (inactive) | 1.54 µM (inactive) | 1.43 µM (inactive) | 2.32 µM (inactive) | 1.58 µM (inactive) | 
6 | C=CC1(C)/C(=N\O)C(C)(CC)C(=O)N1O (stereo not given) | > 100 µM (inactive) | > 100 µM (inactive) | > 100 µM (inactive) | > 100 µM (inactive) | > 100 µM (inactive) | > 100 µM (inactive) | > 100 µM (inactive) |  | > 100 µM (inactive) | > 100 µM (inactive) | > 100 µM (inactive) | > 100 µM (inactive) |  | > 100 µM (inactive) | > 100 µM (inactive) | > 100 µM (inactive) |  |  |  | 
7 | CC(Oc1ccc(Oc2cnc3ccc(Cl)cc3n2)cc1)C(=O)O (stereo not given) |  | > 91.6 µM (inactive) | 81.1 µM (inactive) | > 100 µM (inactive) | 30.1 µM (inactive) | 58.7 µM (inactive) | > 95.3 µM (inactive) | > 73.6 µM (inactive) | > 100 µM (inactive) | > 95.9 µM (inactive) | 29.5 µM (inactive) |  | > 87.9 µM (inactive) | > 89.9 µM (inactive) | 65.3 µM (inactive) | > 76.7 µM (inactive) | > 84.5 µM (inactive) | 84.1 µM (inactive) | > 86.7 µM (inactive) | 26.6 µM (inactive)
